According to patent publication US20170290820A1, “METHODS AND COMPOSITIONS FOR TREATING BETA-THALASSEMIA AND SICKLE CELL DISEASE” (Academia Sinica, priority 2013, published 2017):
≈ marks a conversion by molar mass, not a printed value. Counter-ions that a name gives are not always drawn. Like-named read-outs stand apart in the source and are kept apart here.

Tests used:
γ globin gene = γ globin gene induction by relative quantitative RT-PCR; format: cell-based, human; details: for γ globin induction (IC50): Table 3, γ globin mRNA induction fold at the compound's IC50, 3 days; for EC (μM) induction of HU IC50 (2.3 fold): concentration inducing γ globin gene expression 2.3-fold, primary human erythroid cells
Procedure: After 3 days of drug-treatment, the total RNA was extracted by RNA Spin mini kit (Ge-Healthcare) and reverse-transcription was performed by using superscript II (Invitrogen) followed the manufactors instruction. Quantitative PCR was performed on LightCycler with using STBR green master mix followed the manufactors instruction (Roche). The absolute quantitative RT-PCR was calculated by the standard curve with supplying a known copy number of plasmids. The relative quantitative RT-PCR was normalized to the expression levels of the β-actin and compared to the mock control.
To search for new agents, which are capable of inducing the expression of γ globin, a series of naphthalimide derivatives with various substituent(s) on the naphthalene ring and the heterocyclic N-atom (A1-A14, B1-B4, C1-C5, D1, and E1-E3, FIG. 2) were synthesized. These derivatives were subjected to evaluating the γ globin induction abilities in differentiated peripheral blood mononuclear cells (PBMCs). The PBMCs isolated from the peripheral blood of donors were expanded and differentiated for a total of 14 days in a two-phase liquid culture. The resulted primary erythoid cells were then treated with different dosages of naphthalimide derivatives individually for another 3 days. The expression levels of the endogenous γ globin gene were estimated by relative quantitative RT-PCR and the proliferation rates of these cells were examined by AlamarBlue cell viability assay. […]; 2-4.5-folds induction of the γ globin gene expression in the compounds-treated cells (FIG. 3).

[1] = tested on: primary human erythroid cells; test: AlamarBlue cell viability / proliferation assay; details: for IC50: 3 days
[2] = solubility in DMSO and H2O; format: physicochemical; details: for water-solubility (in words): comparison
[3] = Table 1a, concentration reducing proliferation rate of primary human erythroid cells by 50%
[4] = water, H2O, read-out: solubility H2O
[5] = Table 3, primary human erythroid cells, proliferation reduced by 50%

Row | SMILES | melting point [°C] | IC50 [1, 3] [µM] | further results
1 | CN(C)CCN1Cc2cccc3cccc(c23)C1=O [BO-2477, 2-(2-(Dimethylamino)ethyl)-2,3-dihydro-1H-benzo[de]isoquinolin-1-one] | 253 to 254 |  | γ globin-inducing activity, rank among compounds tested (γ globin gene; FIG. 8): highest γ globin-inducing activity; cytotoxicity IC50 against primary erythroid cells ([1]; FIG. 8, Example 2): relatively lower cytotoxicity
2 | O=C1c2cccc3cccc(c23)C(=O)N1c1ccccc1 [Compound A1, N-Phenyl-1,8-naphthalimide] | 218 to 220 | > 100 | solubility ([2]; DMSO, organic solvent or mixture, read-out: solubility DMSO): 10 mM (≈ 2730 µg/mL)
3 | O=C1c2cccc3c([N+](=O)[O-])ccc(c23)C(=O)N1c1ccccc1 [Compound A2, N-Phenyl-4-nitro-1,8-naphthalimide] | > 280 | 0.3 | γ globin induction (IC50) (γ globin gene): 1.1 fold
4 | O=C1c2cccc3c(Cl)ccc(c23)C(=O)N1c1cccc(Cl)c1 [Compound A10, N-(3-Chloro-phenyl)-4-chloro-1,8-naphthalimide] | 273 to 275 | > 100 | 
5 | O=C1c2cccc3c(Cl)ccc(c23)C(=O)N1c1ccc(F)c(Br)c1 [Compound A11, N-(3-Bromo-4-fluoro-phenyl)-4-chloro-1,8-naphthalimide] | > 280 | > 100 | 
6 | O=C1c2cccc3c(Cl)ccc(c23)C(=O)N1c1ccc(F)cc1 [Compound A12, N-(4-Fluoro-phenyl)-4-chloro-1,8-naphthalimide] | 274 to 276 | > 100 | 
7 | O=C1c2cccc3c(Cl)ccc(c23)C(=O)N1c1ccc(Br)cc1 [Compound A13, N-(4-Bromo-phenyl)-4-chloro-1,8-naphthalimide] | > 280 | > 100 | 
8 | O=C1c2cccc3c(Cl)ccc(c23)C(=O)N1c1ccc(Cl)c(Cl)c1 [Compound A14, N-(3,4-Dichloro-phenyl)-4-chloro-1,8-naphthalimide] | > 280 | > 100 | 
9 | CN(C)CCN1C(=O)c2cccc3cccc(c23)C1=O [Compound B1, N-(2-Dimethylamino-ethyl)-1,8-naphthalimide hydrochloride] |  | 10.7 | water-solubility (in words) [2]: greatly improved water-solubility; solubility [2, 4]: > 100 mM; γ globin induction (IC50) (γ globin gene): 4.1 fold; EC (μM) induction of HU IC50 (2.3 fold) (γ globin gene): 4.7 µM; IC50 [1, 5]: 10.7 µM
10 | CN(C)CCN1C(=O)c2cccc3c([N+](=O)[O-])ccc(c23)C1=O [Compound B2, N-(2-Dimethylamino-ethyl)-4-nitro-1,8-naphthalimide] | 131 to 133 | 2.6 | 
11 | CN(C)CCN1C(=O)c2cccc3c(Cl)ccc(c23)C1=O [Compound B4, N-(2-dimethylamino-ethyl)-4-chloro-1,8-naphthalimide hydrochloride] |  | 5 | water-solubility (in words) [2]: greatly improved water-solubility; solubility [2, 4]: > 100 mM; γ globin induction (IC50) (γ globin gene): 3.3 fold; EC (μM) induction of HU IC50 (2.3 fold) (γ globin gene): 2.2 µM; IC50 [1, 5]: 5 µM
12 | CN1C(=O)c2cccc3c([N+](=O)[O-])ccc(c23)C1=O [Compound C2, N-Methyl-4-nitro-1,8-naphthalimide] | 209 to 212.5 | > 100 | 
13 | CCN1C(=O)c2cccc3c([N+](=O)[O-])ccc(c23)C1=O [Compound C3, N-Ethyl-4-nitro-1,8-naphthalimide] | 191 to 192.5 | > 100 | 
14 | CCN1C(=O)c2cccc3c(Cl)ccc(c23)C1=O [Compound C5, N-Ethyl-4-chloro-1,8-naphthalimide] | 167 to 170 | > 100 | 
15 | CCOC(=O)CCCN1C(=O)c2cccc3c([N+](=O)[O-])ccc(c23)C1=O [Compound D1, N-(Butyric acid ethyl ester)-4-nitro-1,8-naphthalimide] | 115 to 116 | 6.3 | 
16 | C[S+]([O-])c1ccc(-c2nc(-c3ccncc3)c(-c3ccc(F)cc3)[nH]2)cc1 (stereo not drawn) [SB203580, reference compound] |  |  | effect of pre-treatment on γ globin elevation triggered by S51021 and SS-2394 (γ globin gene; data not shown): efficiently abolished
